The IC50 is the concentration that inhibits the measured activity by half.

1 compound from patent US9045524B2, “Selective caspase inhibitors and uses thereof” (NOVAGENESIS FOUNDATION, priority 2009, dated 2015) can be followed below.

The target of test [1] is T1, Caspase-1 (Homo sapiens (Human), UniProt P29466). In words: Caspase-1 Inhibitor Drug Screening Kit, fluorometric (AFC liberation). The format is biochemical. The note with it: 30-minute incubation at 37° C.; approximations of the average values; read-out: Caspase enzymatic activity, IC50 (uM) Caspase 1.
Target sequence in this assay (P29466 120-404): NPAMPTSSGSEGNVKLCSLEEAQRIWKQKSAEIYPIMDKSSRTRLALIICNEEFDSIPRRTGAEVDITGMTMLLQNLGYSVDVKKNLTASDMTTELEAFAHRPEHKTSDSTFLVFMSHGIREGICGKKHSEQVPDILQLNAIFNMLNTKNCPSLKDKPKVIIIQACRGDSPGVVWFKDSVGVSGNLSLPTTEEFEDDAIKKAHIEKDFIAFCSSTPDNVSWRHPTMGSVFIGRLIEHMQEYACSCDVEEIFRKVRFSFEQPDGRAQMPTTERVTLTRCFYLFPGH
Method: (§3) The level of inhibition of caspase-1, -3, -5, -7, -9 activity was determined by comparison of the relative fluorescence intensity in samples with or without the compound.
The target in test [2] is T2, Caspase-3 (Homo sapiens (Human), UniProt P42574). In words: Caspase-3 Inhibitor Drug Screening Kit, fluorometric (AFC liberation). The format is biochemical.
Target sequence in this assay (P42574 29-277): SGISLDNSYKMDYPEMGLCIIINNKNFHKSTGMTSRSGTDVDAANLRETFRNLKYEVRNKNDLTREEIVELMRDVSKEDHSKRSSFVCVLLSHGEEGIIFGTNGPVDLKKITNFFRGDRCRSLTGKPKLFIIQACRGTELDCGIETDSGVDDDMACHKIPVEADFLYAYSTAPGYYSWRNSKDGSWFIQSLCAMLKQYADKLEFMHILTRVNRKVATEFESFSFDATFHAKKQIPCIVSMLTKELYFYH
Method: as §3
The target of test [3] is T3, Caspase-5 (Homo sapiens (Human), UniProt P51878). In words: Caspase-5 Inhibitor Drug Screening Kit, fluorometric (AFC liberation). The note with it: 30-minute incubation at 37° C.; approximations of the average values; read-out: Caspase enzymatic activity, IC50 (uM) Caspase 5. The format is biochemical.
Target sequence in this assay (P51878 137-434): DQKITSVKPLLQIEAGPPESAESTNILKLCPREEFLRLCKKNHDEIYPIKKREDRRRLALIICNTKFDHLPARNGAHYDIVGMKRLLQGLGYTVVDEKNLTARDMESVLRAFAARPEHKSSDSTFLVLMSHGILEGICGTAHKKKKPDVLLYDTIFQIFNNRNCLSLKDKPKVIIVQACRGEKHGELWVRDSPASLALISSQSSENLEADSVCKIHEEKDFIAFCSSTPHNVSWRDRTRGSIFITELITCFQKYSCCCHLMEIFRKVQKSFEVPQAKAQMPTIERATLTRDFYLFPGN
Method: as §3
Test [4] addresses T4, Caspase-7 (Homo sapiens (Human), UniProt P55210). In words: Caspase-7 Inhibitor Drug Screening Kit, fluorometric (AFC liberation). The format is biochemical. The note with it: 30-minute incubation at 37° C.; approximations of the average values; read-out: Caspase enzymatic activity, IC50 (uM) Caspase 7.
Method: as §3
Test [5] relates to Glo3/7. Kind of test: Glo3/7 assay. Format: biochemical.
Test [6] concerns the target Caspase-2 (Homo sapiens (Human), UniProt P42575). In words: Fluorometric enzymatic assay, active recombinant Caspase-2. The format is biochemical. The note with it: 10-point titration 0.1 nM to 3.3 μM, 30-minute incubation at 37° C.; read-out: IC50 values (μM) Caspase-2. As for the experimental part: (§1) . In brief, each compound was serially diluted for a final test concentration range of 0.1 nM to 3.3 μM (10-point titration). Each active recombinant Caspase (Active Recombinant Caspase Set IV™ (BioVision, Cat# K233-10-25)) was added to the respective wells of the 96-well High Efficiency™ plates (Molecular Devices, Cat#75-000-0005), followed by the addition of the diluted test compounds. DMSO (Final=1%) or Z-VAD-FMK (Caspase-Family Inhibitor, Z-VAD-FMK (BioVision, Cat#1010-100), Final concentration=20 uM) was added in the designated wells as a background control or positive inhibitor control respectively. Each dilution of the test compounds was tested in duplicates, whereas the DMSO or Z-VAD-FMK controls were tested in triplicates. The synthetic peptide substrate specific for each Caspase (BioVision) was then added to the respective wells, which when cleaved by the active caspase releases free AFC that can be quantified by fluorometry. After a 30-minute incubation at 37° C., the plates were read using the Flexstation 3™ with a 400 nm excitation filter and a 505 nm emission filter (cutoff at 495 nm). The inhibition efficiency and the IC50 values of the test compounds were then determined by comparing the fluorescence intensity (FI) of the test compounds with that of the DMSO control.
(§2) The SoftMax Pro Software™ (v5.2 rev C, Molecular Devices) was used for data analysis. The % Inhibition is calculated by: % Inhibition=[FI(DMSO)−FI(test sample)/FI(DMSO)]×100. The % Inhibition vs. Log(concentration) was plotted, and the curve was fitted using the 5-parameter fit of the software.

For test [7], the target named is T3, Caspase-5. In words: Fluorometric enzymatic assay, active recombinant Caspase-5. The format is biochemical. The note with it: 10-point titration 0.1 nM to 3.3 μM, 30-minute incubation at 37° C.; read-out: IC50 values (μM) Caspase-5. On the procedure:
as §1, §2
Target sequence in this assay (P51878 whole entry, looked up): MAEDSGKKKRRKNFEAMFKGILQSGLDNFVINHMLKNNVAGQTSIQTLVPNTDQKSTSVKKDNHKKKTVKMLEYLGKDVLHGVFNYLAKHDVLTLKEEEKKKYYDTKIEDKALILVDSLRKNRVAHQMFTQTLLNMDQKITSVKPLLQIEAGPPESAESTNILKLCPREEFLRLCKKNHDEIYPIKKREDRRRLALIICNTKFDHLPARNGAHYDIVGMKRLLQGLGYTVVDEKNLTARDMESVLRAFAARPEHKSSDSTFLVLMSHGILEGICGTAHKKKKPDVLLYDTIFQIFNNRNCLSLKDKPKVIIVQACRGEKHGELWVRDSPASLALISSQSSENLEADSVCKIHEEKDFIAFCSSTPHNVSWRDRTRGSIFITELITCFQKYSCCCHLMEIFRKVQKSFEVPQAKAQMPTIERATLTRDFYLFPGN
Target sequence in this assay (P51878 whole entry, looked up): as above

In test [8] the target is Caspase-6 (Homo sapiens (Human), UniProt P55212). Kind of test: Fluorometric enzymatic assay, active recombinant Caspase-6. Format: biochemical. The note with it: 10-point titration 0.1 nM to 3.3 μM, 30-minute incubation at 37° C.; read-out: IC50 values (μM) Caspase-6. On the procedure: as §1, §2
Test [9] deals with T1, Caspase-1. Kind of test: Fluorometric enzymatic assay, active recombinant Caspase-1.
Target sequence in this assay (P29466 whole entry, looked up): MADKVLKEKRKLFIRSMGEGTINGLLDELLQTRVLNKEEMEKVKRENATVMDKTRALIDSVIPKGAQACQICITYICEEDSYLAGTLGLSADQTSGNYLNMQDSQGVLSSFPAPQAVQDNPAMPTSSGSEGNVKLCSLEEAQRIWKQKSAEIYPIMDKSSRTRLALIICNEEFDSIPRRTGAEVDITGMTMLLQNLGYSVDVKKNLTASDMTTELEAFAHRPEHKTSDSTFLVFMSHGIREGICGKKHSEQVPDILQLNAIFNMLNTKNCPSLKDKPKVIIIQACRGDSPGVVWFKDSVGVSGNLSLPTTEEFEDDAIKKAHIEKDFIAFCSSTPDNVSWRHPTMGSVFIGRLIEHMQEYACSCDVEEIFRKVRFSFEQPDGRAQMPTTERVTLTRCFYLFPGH
Target sequence in this assay (P29466 whole entry, looked up): as above
Method: (§4) Each dilution of the test compounds was tested in duplicates, whereas the DMSO or Z-VAD-FMK controls were tested in triplicates. […] The inhibition efficiency and the IC50 values of the test compounds were then determined by comparing the fluorescence intensity (FI) of the test compounds with that of the DMSO control.
Test [10] addresses T2, Caspase-3. In words: Fluorometric enzymatic assay, active recombinant Caspase-3.
Target sequence in this assay (P42574 29-175): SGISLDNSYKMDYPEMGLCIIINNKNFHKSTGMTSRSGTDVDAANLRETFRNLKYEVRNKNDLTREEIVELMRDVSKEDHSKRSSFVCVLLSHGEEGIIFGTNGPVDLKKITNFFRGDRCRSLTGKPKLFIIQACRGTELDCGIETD
Target sequence in this assay (P42574 176-277): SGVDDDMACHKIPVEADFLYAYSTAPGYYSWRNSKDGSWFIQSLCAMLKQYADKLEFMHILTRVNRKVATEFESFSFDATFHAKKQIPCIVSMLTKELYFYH
Method: as §4
Test [11] concerns the target Caspase-4 (Homo sapiens (Human), UniProt P49662). In words: Fluorometric enzymatic assay, active recombinant Caspase-4.
Method: as §4
For test [12], the target named is T4, Caspase-7. Kind of test: Fluorometric enzymatic assay, active recombinant Caspase-7.
Target sequence in this assay (P55210 whole entry, looked up): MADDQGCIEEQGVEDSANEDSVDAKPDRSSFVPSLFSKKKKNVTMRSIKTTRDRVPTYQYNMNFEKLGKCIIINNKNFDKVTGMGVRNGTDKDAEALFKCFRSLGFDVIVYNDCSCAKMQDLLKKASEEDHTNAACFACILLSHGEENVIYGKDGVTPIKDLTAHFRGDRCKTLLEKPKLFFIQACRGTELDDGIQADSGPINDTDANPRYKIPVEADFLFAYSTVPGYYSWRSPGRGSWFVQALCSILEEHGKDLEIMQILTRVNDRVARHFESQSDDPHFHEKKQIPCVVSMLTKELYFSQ
Target sequence in this assay (P55210 whole entry, looked up): as above
Method: as §4
Test [13] has as its target Caspase-10 (Homo sapiens (Human), UniProt Q92851). In words: Fluorometric enzymatic assay, active recombinant Caspase-10. The note with it: read-out: IC50 values (μM) Caspase-10; 10-point titration 0.1 nM to 3.3 μM, 30-minute incubation at 37° C.
Method: as §4

Caspase-4, sequence (P49662 81-270): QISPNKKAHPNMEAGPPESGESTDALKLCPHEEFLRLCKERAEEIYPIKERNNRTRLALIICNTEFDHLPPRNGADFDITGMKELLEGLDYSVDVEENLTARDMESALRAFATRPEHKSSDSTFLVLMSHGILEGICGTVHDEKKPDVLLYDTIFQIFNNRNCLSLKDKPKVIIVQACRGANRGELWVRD
Caspase-4, sequence (P49662 290-377): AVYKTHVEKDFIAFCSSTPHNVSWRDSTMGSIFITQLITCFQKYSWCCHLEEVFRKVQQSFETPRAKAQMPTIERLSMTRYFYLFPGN
Caspase-6, sequence (P55212 24-179): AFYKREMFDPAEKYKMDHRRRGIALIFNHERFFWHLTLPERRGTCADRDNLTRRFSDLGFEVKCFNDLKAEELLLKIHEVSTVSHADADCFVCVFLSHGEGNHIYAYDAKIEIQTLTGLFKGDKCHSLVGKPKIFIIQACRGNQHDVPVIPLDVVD
Caspase-6, sequence (P55212 194-293): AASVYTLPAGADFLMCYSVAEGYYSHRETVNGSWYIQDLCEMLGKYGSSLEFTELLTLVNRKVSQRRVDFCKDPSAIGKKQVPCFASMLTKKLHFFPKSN
Caspase-2, sequence (P42575 170-325): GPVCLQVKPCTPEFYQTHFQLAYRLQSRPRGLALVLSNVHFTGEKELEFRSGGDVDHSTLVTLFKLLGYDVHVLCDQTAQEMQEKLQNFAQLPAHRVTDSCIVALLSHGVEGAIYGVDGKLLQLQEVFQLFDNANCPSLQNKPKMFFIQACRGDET
Caspase-2, sequence (P42575 348-452): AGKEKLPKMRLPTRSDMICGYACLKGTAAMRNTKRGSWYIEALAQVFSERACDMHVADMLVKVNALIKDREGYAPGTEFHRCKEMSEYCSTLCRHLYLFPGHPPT
Caspase-10, sequence (Q92851 220-415): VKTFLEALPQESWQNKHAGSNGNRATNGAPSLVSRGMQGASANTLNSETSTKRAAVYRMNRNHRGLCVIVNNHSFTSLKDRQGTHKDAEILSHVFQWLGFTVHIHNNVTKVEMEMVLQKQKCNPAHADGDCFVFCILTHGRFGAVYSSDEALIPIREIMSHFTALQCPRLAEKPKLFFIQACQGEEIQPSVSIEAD
Caspase-10, sequence (Q92851 416-521): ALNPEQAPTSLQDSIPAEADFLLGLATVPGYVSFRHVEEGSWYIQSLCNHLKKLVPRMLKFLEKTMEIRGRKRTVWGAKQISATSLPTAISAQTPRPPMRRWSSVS

Turning to `CC(C)[C@H](NC(=O)[C@@H](NC(=O)[C@H](CC(=O)O)NC(=O)OCc1ccccc1)c1ccccc1)C(=O)N[C@H](/C=C/S(C)(=O)=O)CC(=O)O` [Compound 53, Z-Asp-Phg-Val-Aspmethyl vinyl sulfone], the IC50 in test [1] is 2 µM; in [2] (30-minute incubation at 37° C., approximations of the average values, read-out: Caspase enzymatic activity, IC50 (uM) Caspase 3), 0.06 µM; in test [2] (read-out: IC50 caspase-3), 0.03 to 0.09 µM; in [3] it was > 10 µM; in test [4], 0.8 µM; in test [5], 0.1 µM. For the same compound, the IC50 in test [6] was > 3.33 µM; in test [7], > 3.33 µM; in test [8], > 3.33 µM; in test [9] (read-out: IC50 values (μM) Caspase-1, 10-point titration 0.1 nM to 3.3 μM, 30-minute incubation at 37° C.) it was 2.1 µM; in test [10] (read-out: IC50 values (μM) Caspase-3, 10-point titration 0.1 nM to 3.3 μM, 30-minute incubation at 37° C.), 0.09 µM; in test [11] (read-out: IC50 values (μM) Caspase-4, 10-point titration 0.1 nM to 3.3 μM, 30-minute incubation at 37° C.) it was 2.8 µM. The IC50 was 0.8 µM in [12] (read-out: IC50 values (μM) Caspase-7, 10-point titration 0.1 nM to 3.3 μM, 30-minute incubation at 37° C.) and > 3.33 µM in test [13]. For the same compound, the “selectivity of Caspase-3 over Caspase-7 based on IC50 values” in [2] (IC50 caspase-7 versus caspase-3) is recorded as “about 12 fold”. Moreover, the “inhibitory activity towards Caspase-1” value in [9] (FIG. 5) is “inhibitory activity”. For the same compound, in [10] (FIG. 5), the “inhibitory activity towards Caspase-3” value was “high inhibitory activity”. Besides, in test [11] (FIG. 5), the “inhibitory activity towards Caspase-4” value is listed as “inhibitory activity”. In addition, in test [12] (FIG. 5), the “inhibitory activity towards Caspase-7” value is reported as “high inhibitory activity”.
